Measured values: ChEMBL document CHEMBL4002643, “Tubulin-binding dibenz[c,e]oxepines: Part 2. Structural variation and biological evaluation as tumour vasculature disrupting agents” (Bioorg Med Chem, 2017)

What was measured:
[1] = Inhibition of tubulin (unknown origin) assembly preincubated for 30 mins followed by GTP addition by spectrophotometric method; parameters: species or system Homo sapiens
[2] = Inhibition of porcine tubulin assembly measured for 30 mins by UV/visible spectrophotometric method; parameters: species or system Sus scrofa
K562 [3] = experiment: Cytotoxicity against human K562 cells assessed as growth inhibition after 5 days by MTT assay; type: functional, cell-based; settings: K562, 120 h
A549 = experiment: Cytotoxicity against human A549 cells assessed as growth inhibition after 48 hrs by SRB assay; type: functional; settings: A549, 48 h
RXF 393 = experiment: Cytotoxicity against human RXF393 cells assessed as growth inhibition after 48 hrs by SRB assay; type: functional; settings: RXF 393, 48 h
NCI-H226 = experiment: Cytotoxicity against human NCI-H226 cells assessed as growth inhibition after 48 hrs by SRB assay; type: functional; settings: NCI-H226, 48 h
OVCAR-3 = experiment: Cytotoxicity against human OVCAR3 cells assessed as growth inhibition after 48 hrs by SRB assay; type: functional; settings: OVCAR-3, 48 h
U-251 = experiment: Cytotoxicity against human U251 cells assessed as growth inhibition after 48 hrs by SRB assay; type: functional; settings: U-251, 48 h
LOX IMVI = experiment: Cytotoxicity against human LOXIMVI cells assessed as growth inhibition after 48 hrs by SRB assay; type: functional
NCI-H460 = experiment: Cytotoxicity against human NCI-H460 cells assessed as growth inhibition after 48 hrs by SRB assay; type: functional; settings: NCI-H460, 48 h
UACC-257 = experiment: Cytotoxicity against human UACC257 cells assessed as growth inhibition after 48 hrs by SRB assay; type: functional; settings: UACC-257, 48 h
SN12C = experiment: Cytotoxicity against human SN12C cells assessed as growth inhibition after 48 hrs by SRB assay; type: functional
PC-3 = experiment: Cytotoxicity against human PC3 cells assessed as growth inhibition after 48 hrs by SRB assay; type: functional; settings: PC-3, 48 h
SF-539 = experiment: Cytotoxicity against human SF539 cells assessed as growth inhibition after 48 hrs by SRB assay; type: functional; settings: SF-539, 48 h
MCF7 = experiment: Cytotoxicity against human MCF7 cells assessed as growth inhibition after 48 hrs by SRB assay; type: functional; settings: MCF7, 48 h
KM12 = experiment: Cytotoxicity against human KM12 cells assessed as growth inhibition after 48 hrs by SRB assay; type: functional; settings: KM12, 48 h
NCI-H23 = experiment: Cytotoxicity against human NCI-H23 cells assessed as growth inhibition after 48 hrs by SRB assay; type: functional; settings: NCI-H23, 48 h
SF-295 = experiment: Cytotoxicity against human SF295 cells assessed as growth inhibition after 48 hrs by SRB assay; type: functional; settings: SF-295, 48 h
M14 = experiment: Cytotoxicity against human M14 cells assessed as growth inhibition after 48 hrs by SRB assay; type: functional; settings: M14, 48 h
NCI-H322M = experiment: Cytotoxicity against human NCI-H322M cells assessed as growth inhibition after 48 hrs by SRB assay; type: functional
SR = experiment: Cytotoxicity against human SR cells assessed as growth inhibition after 48 hrs by SRB assay; type: functional
NCI/ADR-RES = experiment: Cytotoxicity against human NCI-ADR-RES cells assessed as growth inhibition after 48 hrs by SRB assay; type: functional
A498 = experiment: Cytotoxicity against human A498 cells assessed as growth inhibition after 48 hrs by SRB assay; type: functional; settings: A498, 48 h
OVCAR-8 = experiment: Cytotoxicity against human OVCAR8 cells assessed as growth inhibition after 48 hrs by SRB assay; type: functional; settings: OVCAR-8, 48 h
T47D = experiment: Cytotoxicity against human T47D cells assessed as growth inhibition after 48 hrs by SRB assay; type: functional
MDA-MB-435 = experiment: Cytotoxicity against human MDA-MB-435 cells assessed as growth inhibition after 48 hrs by SRB assay; type: functional; settings: MDA-MB-435, 48 h
HOP-62 = experiment: Cytotoxicity against human HOP62 cells assessed as growth inhibition after 48 hrs by SRB assay; type: functional; settings: HOP-62, 48 h
786-0 = experiment: Cytotoxicity against human 786-0 cells assessed as growth inhibition after 48 hrs by SRB assay; type: functional; settings: 786-0, 48 h
HCT-116 = experiment: Cytotoxicity against human HCT116 cells assessed as growth inhibition after 48 hrs by SRB assay; type: functional; settings: HCT-116, 48 h
DU-145 = experiment: Cytotoxicity against human DU145 cells assessed as growth inhibition after 48 hrs by SRB assay; type: functional; settings: DU-145, 48 h
BT-549 = experiment: Cytotoxicity against human BT549 cells assessed as growth inhibition after 48 hrs by SRB assay; type: functional; settings: BT-549, 48 h
OVCAR-4 = experiment: Cytotoxicity against human OVCAR4 cells assessed as growth inhibition after 48 hrs by SRB assay; type: functional; settings: OVCAR-4, 48 h
CAKI-1 = experiment: Cytotoxicity against human Caki1 cells assessed as growth inhibition after 48 hrs by SRB assay; type: functional; settings: CAKI-1, 48 h
HCT-15 = experiment: Cytotoxicity against human HCT15 cells assessed as growth inhibition after 48 hrs by SRB assay; type: functional; settings: HCT-15, 48 h
SNB-75 = experiment: Cytotoxicity against human SNB75 cells assessed as growth inhibition after 48 hrs by SRB assay; type: functional; settings: SNB-75, 48 h
HL-60(TB) = experiment: Cytotoxicity against human HL-60(TB) cells assessed as growth inhibition after 48 hrs by SRB assay; type: functional; settings: HL-60, 48 h
HCC 2998 = experiment: Cytotoxicity against human HCC2998 cells assessed as growth inhibition after 48 hrs by SRB assay; type: functional; settings: HCC 2998, 48 h
Malme-3M = experiment: Cytotoxicity against human MALME-3M cells assessed as growth inhibition after 48 hrs by SRB assay; type: functional
TK-10 = experiment: Cytotoxicity against human TK10 cells assessed as growth inhibition after 48 hrs by SRB assay; type: functional; settings: TK-10, 48 h
CCRF-CEM = experiment: Cytotoxicity against human CCRF-CEM cells assessed as growth inhibition after 48 hrs by SRB assay; type: functional
K562 [4] = experiment: Cytotoxicity against human K562 cells assessed as growth inhibition after 48 hrs by SRB assay; type: functional; settings: K562, 48 h
MDA-MB-468 = experiment: Cytotoxicity against human MDA-MB-468 cells assessed as growth inhibition after 48 hrs by SRB assay; type: functional; settings: MDA-MB-468, 48 h
SNB-19 = experiment: Cytotoxicity against human SNB19 cells assessed as growth inhibition after 48 hrs by SRB assay; type: functional; settings: SNB-19, 48 h
COLO 205 = experiment: Cytotoxicity against human COLO205 cells assessed as growth inhibition after 48 hrs by SRB assay; type: functional; settings: COLO 205, 48 h
SW-620 = experiment: Cytotoxicity against human SW620 cells assessed as growth inhibition after 48 hrs by SRB assay; type: functional; settings: SW-620, 48 h
SK-MEL-2 = experiment: Cytotoxicity against human SK-MEL-2 cells assessed as growth inhibition after 48 hrs by SRB assay; type: functional; settings: SK-MEL-2, 48 h
HOP-92 = experiment: Cytotoxicity against human HOP92 cells assessed as growth inhibition after 48 hrs by SRB assay; type: functional; settings: HOP-92, 48 h
UO-31 = experiment: Cytotoxicity against human UO31 cells assessed as growth inhibition after 48 hrs by SRB assay; type: functional; settings: UO-31, 48 h
SK-MEL-5 = experiment: Cytotoxicity against human SK-MEL-5 cells assessed as growth inhibition after 48 hrs by SRB assay; type: functional; settings: SK-MEL-5, 48 h
MOLT-4 = experiment: Cytotoxicity against human MOLT4 cells assessed as growth inhibition after 48 hrs by SRB assay; type: functional; settings: MOLT-4, 48 h
SF-268 = experiment: Cytotoxicity against human SF268 cells assessed as growth inhibition after 48 hrs by SRB assay; type: functional; settings: SF-268, 48 h
Hs-578T = experiment: Cytotoxicity against human Hs 578T cells assessed as growth inhibition after 48 hrs by SRB assay; type: functional
SK-OV-3 = experiment: Cytotoxicity against human SKOV3 cells assessed as growth inhibition after 48 hrs by SRB assay; type: functional; settings: SK-OV-3, 48 h
IGROV-1 = experiment: Cytotoxicity against human IGROV1 cells assessed as growth inhibition after 48 hrs by SRB assay; type: functional; settings: IGROV-1, 48 h
NCI-H522 = experiment: Cytotoxicity against human NCI-H522 cells assessed as growth inhibition after 48 hrs by SRB assay; type: functional; settings: NCI-H522, 48 h
UACC-62 = experiment: Cytotoxicity against human UACC62 cells assessed as growth inhibition after 48 hrs by SRB assay; type: functional; settings: UACC-62, 48 h
RPMI-8226 = experiment: Cytotoxicity against human RPMI8226 cells assessed as growth inhibition after 48 hrs by SRB assay; type: functional; settings: RPMI-8226, 48 h
MDA-MB-231 = experiment: Cytotoxicity against human MDA-MB-231 cells assessed as growth inhibition after 48 hrs by SRB assay; type: functional; settings: MDA-MB-231, 48 h
EKVX = experiment: Cytotoxicity against human EKVX cells assessed as growth inhibition after 48 hrs by SRB assay; type: functional

COc1ccc2c(c1)[C@@H](NC(C)=O)CCc1cc(OC)c(OC)c(OC)c1-2
IC50 [1]: 700 nM

COc1ccc2c(c1OS(=O)(=O)C(F)(F)F)COCc1cc(OC)c(OC)c(OC)c1-2
IC50 [2]: 15000 nM
IC50 (K562 [3]): 250 nM

COc1cc2c(c(OC)c1OC)-c1cc3c(cc1COC2)OCO3
GI50 (A549): 440 nM
GI50 (RXF 393): 200 nM
GI50 (NCI-H226): 2750 nM
GI50 (OVCAR-3): 250 nM
IC50 [2]: > 10000 nM
GI50 (U-251): 480 nM
GI50 (LOX IMVI): 870 nM
GI50 (NCI-H460): 380 nM
GI50 (UACC-257): 3390 nM
GI50 (SN12C): 1050 nM
GI50 (PC-3): 540 nM
GI50 (SF-539): 350 nM
GI50 (MCF7): 400 nM
GI50 (KM12): 360 nM
GI50 (NCI-H23): 790 nM
GI50 (SF-295): 330 nM
GI50 (M14): 230 nM
GI50 (NCI-H322M): 2000 nM
GI50 (SR): 170 nM
GI50 (NCI/ADR-RES): 360 nM
GI50 (A498): 450 nM
GI50 (OVCAR-8): 520 nM
GI50 (T47D): 25700 nM
GI50 (MDA-MB-435): 50 nM
GI50 (HOP-62): 690 nM
IC50 (K562 [3]): 85000 nM
GI50 (786-0): 500 nM
GI50 (HCT-116): 370 nM
GI50 (DU-145): 370 nM
GI50 (BT-549): 540 nM
GI50 (OVCAR-4): 2190 nM
GI50 (CAKI-1): 56200 nM
GI50 (HCT-15): 480 nM
GI50 (SNB-75): 460 nM
GI50 (HL-60(TB)): 390 nM
GI50 (HCC 2998): 490 nM
GI50 (Malme-3M): > 100000 nM
GI50 (TK-10): 5130 nM
GI50 (CCRF-CEM): 350 nM
GI50 (K562 [4]): 210 nM
GI50 (MDA-MB-468): 170 nM
GI50 (SNB-19): 680 nM
GI50 (COLO 205): 340 nM
GI50 (SW-620): 400 nM
GI50 (SK-MEL-2): 560 nM
GI50 (HOP-92): 7080 nM
GI50 (UO-31): 3980 nM
GI50 (SK-MEL-5): 210 nM
GI50 (MOLT-4): 470 nM
GI50 (SF-268): 1320 nM
GI50 (Hs-578T): 430 nM
GI50 (SK-OV-3): 470 nM
GI50 (IGROV-1): 950 nM
GI50 (NCI-H522): 390 nM
GI50 (UACC-62): 790 nM
GI50 (RPMI-8226): 500 nM
GI50 (MDA-MB-231): 1200 nM
GI50 (EKVX): 780 nM

COc1cc2c(c(OC)c1OC)-c1ccc(N)cc1COC2
IC50 [2]: > 10000 nM
IC50 (K562 [3]): 10000 nM
